{
  "source": "patent US5166348A",
  "about": "“Bornyl and isobornyl esters of carboxylic acids of condensed tetrahydroquinoxalines” (Uralsky politekhnichesky institut, priority 1989, dated 1992)",
  "test_system": "influenza virus strains resistant to remantadine",
  "type": "in vivo",
  "details": "chick embryos, 1 mg/embryo",
  "data": [
    {"smiles": "CC1=C(C(=O)OC2CC3CCC2(C)C3(C)C)C2Nc3ccccc3N(C)C2O1", "note": "(stereo not shown) [compound 1a, isobornyl ester of 2,9-dimethyl-3a,4,9,9a-tetrahydrofuro [2,3-b] quinoxaline-3-carboxylic acid]", "values": [
      {"measurement": "sensitivity of strains resistant or only slightly sensitive to remantadine (in words)", "value": "Some virus strains that are resistant or only slightly sensitive to remantadine were sensitive to the proposed compound 1a"}
    ]}
  ]
}
